Drawing on US8685999B2, “Beta carboline sulphonylurea derivatives as EP4 receptor antagonists” (Merck Sharp & Dohme Corp., priority 2008, dated 2014), this text covers IC50 for 14 compounds.

Where two headings read alike, the source gives them in different places.

For this assay, the target named is T1, EP4 (Homo sapiens, UniProt P35408).
T1 construct: expressed in transfected cells; membranes prepared by differential centrifugation
In words: Prostanoid receptor binding assay (radioligand displacement binding assay). The procedure: Prostanoid receptor cDNAs corresponding to full length coding sequences are subcloned into the appropriate sites of mammalian expression vectors and transfected into HEK 293(ebna) cells. HEK 293(ebna) cells expressing the individual cDNAs are grown under selection and individual colonies are isolated after 2-3 weeks of growth using the cloning ring method and subsequently expanded into clonal cell lines.
Transfected HEK 293(ebna) cells are maintained in culture, harvested and membranes are prepared by differential centrifugation, following lysis of the cells in the presence of protease inhibitors, for use in receptor binding assays. Prostanoid receptor binding assays (for DP1, DP2 (CRTH2), EP1, EP2, EP3-III, EP4, FP, IP, and TP) are performed in 10 mM MES/KOH (pH 6.0) (EPs, FP and TP) or 10 mM HEPES/KOH (pH 7.4) (DPs and IP), containing 1 mM EDTA, 2.5-30 mM divalent cation and the appropriate radio-ligand. Synthetic compounds are added in DMSO which is kept constant at 1% (v/v) in all incubations. The reaction is initiated by addition of membrane protein. Non-specific binding is determined in the presence of 10 μM of the corresponding non-radioactive prostanoid. Incubations are conducted for 60-120 min at room temperature or 30° C. and terminated by rapid filtration. Specific binding is calculated by subtracting non specific binding from total binding. The residual specific binding at each ligand concentration is calculated and expressed as a function of ligand concentration in order to construct sigmoidal concentration-response curves. The binding affinity of the compounds is determined by calculating the equilibrium inhibition constant (Ki) from the equation Ki=InPt/1+[radio-ligand]/Kd where Kd is the equilibrium dissociation constant for the radio-ligand:receptor interaction and InPt is the inflection point of the dose-response curves.
Abramovitz, M. et al., Biochem, Biophys. Acta, 2000, 1483, pp. 285.
(Loss of bound radioactivity is the signal in a displacement assay; it reports binding, not function.)

The mark [1] stands for this setting: column marked X when IC50 < 1, read-out: IC50 (nm) X < 1.

T1 sequence (P35408 whole entry): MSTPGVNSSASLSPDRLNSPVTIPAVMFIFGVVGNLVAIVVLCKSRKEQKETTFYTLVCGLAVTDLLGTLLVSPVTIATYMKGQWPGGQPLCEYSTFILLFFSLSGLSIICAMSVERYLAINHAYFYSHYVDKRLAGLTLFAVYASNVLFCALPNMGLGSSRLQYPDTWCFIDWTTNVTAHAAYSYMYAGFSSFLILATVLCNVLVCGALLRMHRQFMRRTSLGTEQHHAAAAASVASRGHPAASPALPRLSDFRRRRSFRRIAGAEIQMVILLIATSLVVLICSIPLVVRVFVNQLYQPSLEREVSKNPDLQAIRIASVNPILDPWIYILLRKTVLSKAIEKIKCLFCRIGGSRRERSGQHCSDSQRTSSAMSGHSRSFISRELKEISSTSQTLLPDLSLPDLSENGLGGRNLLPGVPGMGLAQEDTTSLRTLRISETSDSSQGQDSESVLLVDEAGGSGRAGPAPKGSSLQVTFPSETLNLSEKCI

In the case of `CN1CCc2c(n(-c3ccc(CCNC(=O)NS(=O)(=O)c4ccc(Cl)cc4)cc3)c3cccc(S(C)(=O)=O)c23)C1=O` [Example 1-33, 4-chloro-N-{[(2-{4-[2-methyl-5-(methylsulfonyl)-1-oxo-1,2,3,4-tetrahydro-9H-beta-carbolin-9-yl]phenyl}ethyl)amino]carbonyl}benzenesulfonamide], the IC50 is, setting by setting: (column marked X when IC50 > 5, read-out: IC50 (nm) X > 5) more than 5 nM; (radioligand displacement binding assay, read-out: IC50) more than 5 nM.
For the compound `CN1CCc2c(n(-c3ccc(CC4(NC(=O)NS(=O)(=O)c5ccc(Cl)cc5)CC4)cc3)c3ccc(S(C)(=O)=O)cc23)C1=O` [Example 1-34, 4-chloro-N-{[(1-{4-[2-methyl-6-(methylsulfonyl)-1-oxo-1,2,3,4-tetrahydro-9H-beta-carbolin-9-yl]benzyl}cyclopropyl)amino]carbonyl}benzenesulfonamide], the IC50 under setting [1] is less than 1 nM.
With `CN1CCc2c(n(-c3ccc(CCNC(=O)NS(=O)(=O)c4ccc(Cl)cc4)cc3)c3ccc(-c4ccc(S(C)(=O)=O)cc4)cc23)C1=O` [Example 1-35, 4-chloro-N-({[2-(4-{2-methyl-6-[4-(methylsulfonyl)phenyl]-1-oxo-1,2,3,4-tetrahydro-9H-beta-carbolin-9-yl}phenyl)ethyl]amino}carbonyl)benzenesulfonamide], under setting [1], the IC50 is less than 1 nM.
In the case of `CN1CCc2c(n(-c3ccc(CCNC(=O)NS(=O)(=O)c4ccc(Cl)cc4)cc3)c3ccc(-c4cccc(S(C)(=O)=O)c4)cc23)C1=O` [Example 1-36, 4-chloro-N-({[2-(4-{2-methyl-6-[3-(methylsulfonyl)phenyl]-1-oxo-1,2,3,4-tetrahydro-9H-beta-carbolin-9-yl}phenyl)ethyl]amino}carbonyl)benzenesulfonamide], the IC50 under setting [1] is less than 1 nM.
Regarding `CN1CCc2c(n(-c3ccc(CC4(NC(=O)NS(=O)(=O)c5ccc(Cl)cc5)CC4)cc3)c3ccc(S(=O)(=O)c4ccccc4)cc23)C1=O` [Example 1-37, 4-chloro-N-{[(1-{4-[2-methyl-1-oxo-6-(phenylsulfonyl)-1,2,3,4-tetrahydro-9H-beta-carbolin-9-yl]benzyl}cyclopropyl)amino]carbonyl}benzenesulfonamide], the IC50 under setting [1] was less than 1 nM.
Still for that read-out and setting: the same measure for `CN1CCc2c(n(-c3ccc(CC4(NC(=O)NS(=O)(=O)c5ccc(Cl)cc5)CC4)cc3)c3ccc(C4CC4)cc23)C1=O` [Example 2-1, 4-chloro-N-[({1-[4-(6-cyclopropyl-2-methyl-1-oxo-1,2,3,4-tetrahydro-9H-beta-carbolin-9-yl)benzyl]cyclopropyl}amino)carbonyl]benzenesulfonamide]: less than 1 nM; for `CN1CCc2c(n(-c3ccc(CCNC(=O)NS(=O)(=O)c4ccc(Cl)cc4)cc3)c3ccc(C4CC4)cc23)C1=O` [Example 2-2, 4-chloro-N-[({2-[4-(6-cyclopropyl-2-methyl-1-oxo-1,2,3,4-tetrahydro-9H-beta-carbolin-9-yl)phenyl]ethyl}amino)carbonyl]benzenesulfonamide]: less than 1 nM; for `CN1CCc2c(n(-c3ccc(CCNC(=O)NS(=O)(=O)c4ccc(Cl)cc4)cc3)c3cccc(C4CC4)c23)C1=O` [Example 2-3, 4-chloro-N-[({2-[4-(5-cyclopropyl-2-methyl-1-oxo-1,2,3,4-tetrahydro-9H-beta-carbolin-9-yl)phenyl]ethyl}amino)carbonyl]benzenesulfonamide]: less than 1 nM.
Consider `CN1CCc2c(n(-c3ccc(CCNC(=O)NS(=O)(=O)c4ccc(Cl)cc4)cc3)c3cc(C4CC4)ccc23)C1=O` [Example 2-4, 4-chloro-N-[({2-[4-(7-cyclopropyl-2-methyl-1-oxo-1,2,3,4-tetrahydro-9H-beta-carbolin-9-yl)phenyl]ethyl}amino)carbonyl]benzenesulfonamide], for which, under setting [1], the IC50 was less than 1 nM.
As for `Cc1nnc(-c2ccc3c(c2)c2c(n3-c3ccc(CC4(NC(=O)NS(=O)(=O)c5ccc(Cl)cc5)CC4)cc3)C(=O)N(C)CC2)o1` [Example 3-1, sodium[(4-chlorophenyl)sulfonyl]{[(1-{4-[2-methyl-6-(5-methyl-1,3,4-oxadiazol-2-yl)-1-oxo-1,2,3,4-tetrahydro-9H-beta-carbolin-9-yl]benzyl}cyclopropyl)amino]carbonyl}azanide], the IC50 under setting [1] is less than 1 nM.
On to `COC(=O)c1ccc2c(c1)c1c(n2-c2ccc(CC3(NC(=O)NS(=O)(=O)c4ccc(Cl)cc4)CC3)cc2)C(=O)N(C)CC1` [Example 3-2, methyl 9-[4-({1-[({[(4-chlorophenyl)sulfonyl]amino}carbonyl)amino]cyclopropyl}methyl)phenyl]-2-methyl-1-oxo-2,3,4,9-tetrahydro-1H-beta-carboline-6-carboxylate], for which the IC50 under setting [1] was less than 1 nM.
Turning to `CN1CCc2c(n(-c3ccc(CC4(NC(=O)NS(=O)(=O)c5ccc(Cl)cc5)CC4)cc3)c3ccc(C(=O)O)cc23)C1=O` [Example 3-3, 9-[4-({1-[({[(4-chlorophenyl)sulfonyl]amino}carbonyl)amino]cyclopropyl}methyl)phenyl]-2-methyl-1-oxo-2,3,4,9-tetrahydro-1H-beta-carboline-6-carboxylic acid], the IC50 under setting [1] was less than 1 nM.
With `CN1CCc2c(n(-c3ccc(CC4(NC(=O)NS(=O)(=O)c5ccc(Cl)cc5)CC4)cc3)c3ccc(-c4ccn[nH]4)cc23)C1=O` [Example 3-4, 4-chloro-N-{[(1-{4-[2-methyl-1-oxo-6-(1H-pyrazol-5-yl)-1,2,3,4-tetrahydro-9H-beta-carbolin-9-yl]benzyl}cyclopropyl)amino]carbonyl}benzenesulfonamide], under setting [1], the IC50 was less than 1 nM.
Consider `CN1CCc2c(n(-c3ccc(CC4(NC(=O)NS(=O)(=O)c5ccc(Cl)cc5)CC4)cc3)c3ccc(-c4nnc(-c5ccccc5)o4)cc23)C1=O` [Example 3-5, 4-chloro-N-{[(1-{4-[2-methyl-1-oxo-6-(5-phenyl-1,3,4-oxadiazol-2-yl)-1,2,3,4-tetrahydro-9H-beta-carbolin-9-yl]benzyl}cyclopropyl)amino]carbonyl}benzenesulfonamide], for which the IC50 under setting [1] was less than 1 nM.

In general, IC50 refers to the point on the concentration scale where inhibition reaches its midpoint.
